pEC50, pIC50: −log10 of the molar value. Read-outs that look alike come from different tables or passages of the source.

A short description of data set [1]: MT-4 CC50 Assay (CellTiter Glo). The class given is cell-based. The settings on record: human, MT-4 cells, luminescence, read-out: CC50-MT4. How it is done: Compounds were tested in 384-well plates: 18 compounds in duplex. Compounds were diluted in 7 points, 3-fold with DMSO by Bravo. Assay plate, which contains 20 uL medium with compounds, was seeded 2000 MT-4 cells in 20 uL/well by Multi-drop to start the assay. The plate was incubated at 37° C. for 5 days. On 6th day, the CellTiter Glo 40 uL was added in each well. Luminescence was read by Victor II.
(ATP-based viability assays read luminescence as a measure of living cells.)

Data set [2] concerns HSV-2 virus (MS strain). The data set is described as follows: HSV qPCR Assay (HSV replication in ARPE-19 cells). Conditions: Human alphaherpesvirus 2, ARPE-19, read-out: EC50-HSV2-qPCR. On the technique in general: Real-time PCR tracks product formation cycle by cycle.
Protocol: HSV replication in the presence or absence of compounds was measured by qPCR according to the following procedure: DMSO stock compound solutions (1-10 mM) were serially diluted (2.5-fold) in DMSO in clear round bottom 96-well plates. Compounds were then diluted 1:20 in assay medium (DMEM/F12 Glutamax+2% Fetal bovine serum+1% Penicillin Streptomycin) and 10 μL of these dilutions were added to 96-well tissue culture plates for final starting concentrations between 0.5 and 5 μM.
Cells were resuspended in assay medium, counted, and cell density was adjusted to 2.8E+05 cells/ml with assay medium. […] 90 μL of the infection suspension (25,000 cells) were added to assay plates in which compounds were already added. After an overnight incubation at 37° C., cell culture medium was removed, and cell lysis was performed using the prepGEM Universal kit (MicroGEM cat #PUN1000). Specifically, 100 μL of prepGEM master mix (94.75 μL Water, 5 μL buffer, 0.25 μL enzyme stock) were added to each well and plates were incubated at room temperature for 15 minutes, with the 5 last minutes on a plate shaker. The cell lysates were then transferred to a 96-well PCR compatible microplate (Applied Biosystems, Cat #N8010560). Plates were sealed with a heat resistant plastic sealer and heated on a thermal cycler using the following conditions: 75° C. for 10 min, 95° C. for 5 minutes. Finally, plates were cooled down to room temperature with light shaking before proceeding to the qPCR setup.
Plates were sealed with a clear sealer, spun down, and qPCR reactions were performed in an Applied Biosystems Quantstudio 7 Flex instrument using the following conditions: 95° C. for 2 minutes, then 40 cycles alternating between 95° C. for 5 seconds and 60° C. for 30 seconds.
Analysis was performed using dCT method where dCT=CT (test)−CT (DMSO). Fold change was calculated using the 2^^dCT equation. This fold change was then converted to percentage relative to DMSO control (no drug). EC50s were determined by non-linear regression analysis using GraphPad Prism software.
A further data set has as its target hCAI (Homo sapiens (Human), UniProt P00915). Description: Carbonic Anhydrase (Esterase) Biochemical Assay, hCAI.
The target in a further data set is hCAII (Homo sapiens (Human), UniProt P00918). Description: Carbonic Anhydrase (Esterase) Biochemical Assay, hCAII.
The subject of data set [3] is HSV-2 virus (MS strain). Description: HSV-2 Cellomics Assay (immunofluorescence of HSV protein gD in infected ARPE-19 cells). The settings on record: Human alphaherpesvirus 2, ARPE-19, 16 h.
Protocol: Compounds were tested for their ability to inhibit HSV-2 replication by monitoring the expression of the HSV protein gD using a high-throughput immunofluorescence-based assay. 10-dose, 3-fold serial dilutions of compounds were prepared at starting concentrations of 0.2 or 2 mM in 100% DMSO. […] The final starting concentration in the assay was either 1 or 10 μM. DMSO (no compound) and pritelivir were included on each microplate as negative and positive controls, respectively.
Prior to confluence, cells were transferred to a centrifuge tube and spun for 5 minutes at 1000 rpm. Cells were resuspended in assay medium (DMEM/F-12 Glutamax, 2% FBS, 1% Penicillin-Streptomycin) and counted. Cell density was adjusted to 150,000 cells/ml and infected with HSV-2 virus (MS strain, ATCC cat #VR-540) at a MOI of 0.06 in a 50 ml conical tube for 1 hour under constant rocking. Cells were then spun for 5 minutes at 1000 rpm and the media replaced with assay medium containing either 2% FBS or 10% human serum (EMD Millipore cat #S1-100 ML). 50 μl of the infection suspension were added into microplate wells that were pre-spotted with compounds (7,500 cells per well). Plates were incubated for 16 hours at 37° C.
After a 30-minute incubation at room temperature, plates were washed 4 times with 100 μl/well of PBS using a Biotek plate washer. […] Plates were washed 4 times again and 50 μl of DPBS were added to all wells prior to sealing the plates with a black adhesive seal. Fluorescence was measured on a Cellomics plate reader.
Data analysis was carried out using the Thermo Scientific HCS Studio software. Briefly, cells were identified using the DAPI nuclear stain and thresholds were set to filter cells out based on shape and size. A second threshold based on green fluorescence intensity (detection of HSV-2 gD) was set to identify HSV-2 infected cells. Data was reported as the average fluorescence intensity of HSV-2 infected cells.
Data set [4] deals with human cryopreserved hepatocytes. Description: Stability Assay in Cryopreserved Hepatocytes (human). The class given is in vitro ADME. The settings on record: 1 μM, calculated from half-life using the well-stirred model. How it is done: Test compound was incubated at 1 μM with either rat or human cryopreserved hepatocytes (BioIVT, Westbury, NY) up to 6 hours at 37° C. in a 24-well plate format (1×10^6 cells/mL per well). At specified time points, samples were transferred to a 96-well plate and quenched with 2 volumes of a solution containing 90% acetonitrile 10% methanol 0.1% formic acid and internal standard. Sample plate was centrifuged at 3200 rpm for 15 min and supernatants transferred to a new plate containing half volume of water. The resulting solution was analyzed by LC-MS/MS. Data (analyte to internal standard peak area ratio) was plotted on a semi-log scale and fitted using an exponential fit. Assuming first order kinetics, the half-life (t1/2) and rate of metabolism were determined. Predicted hepatic clearance was calculated from the half-life using the well-stirred model.

Where [5] appears, read: read-out: EC50-HSV2-10% Human Serum.
[6] abbreviates: read-out: IC50-hCAI, 4-nitrophenyl acetate hydrolysis, 60 min.
[7] abbreviates: read-out: IC50-hCAII, 4-nitrophenyl acetate hydrolysis, 60 min.

Chain of hCAI (P00915 whole entry): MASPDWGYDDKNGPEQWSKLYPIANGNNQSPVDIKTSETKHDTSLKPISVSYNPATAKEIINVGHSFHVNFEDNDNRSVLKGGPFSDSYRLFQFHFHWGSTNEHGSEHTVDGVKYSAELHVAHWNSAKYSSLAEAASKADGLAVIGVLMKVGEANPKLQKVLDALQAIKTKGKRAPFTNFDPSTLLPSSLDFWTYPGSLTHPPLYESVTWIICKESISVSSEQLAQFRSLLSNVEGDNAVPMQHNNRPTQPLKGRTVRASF
Protocol for hCAII: 10-dose, 3-fold serial dilutions of compounds were prepared at starting concentrations of 10 mM in 100% DMSO. […] Final starting concentration in the assay was 50 μM. DMSO (no compound) and acetazolamide were included on each microplate as negative and positive controls, respectively.
Following a preincubation at room temperature for 15 minutes, 20 μl of a 4 mM solution of 4NPA substrate (Sigma cat #N8130) in assay buffer were added to start the reaction.

On to `C[C@H]1c2ccc(-c3ccccn3)cc2C[C@@H]1C(=O)N1CCc2cc(F)c(S(N)(=O)=O)cc21` [Example 97, 5-fluoro-1-((1R,2S)-1-methyl-5-(pyridin-2-yl)-2,3-dihydro-1H-indene-2-carbonyl)indoline-6-sulfonamide], for which, in data set [1], the CC50 (usually the concentration that lowers cell viability or growth by half) at 5 days was no less than 50 µM. Besides, the negative logarithm of the EC50 (pEC50) (commonly −log10 of the EC50, conventionally taken in molar units) is 8.89 in the data set with HSV-2 virus (MS strain) [2], 7.25 in the data set on HSV-2 virus (MS strain) [3] (setting [5]) and 7.85 in the data set with HSV-2 virus (MS strain) [3] (read-out: EC50-HSV2-FBS). Further, the negative-log IC50 (pIC50) on hCAI and at hCAII was no more than 4.30 in each case.
Consider `NS(=O)(=O)c1cc2c(cc1F)C[C@H](C(F)F)N2C(=O)[C@@H]1Cc2ccc(-c3ccccn3)cc2C1` [Example 127, (R)-2-(difluoromethyl)-5-fluoro-1-((R)-5-(pyridin-2-yl)-2,3-dihydro-1H-indene-2-carbonyl)indoline-6-sulfonamide], for which the “Predicted human hepatic clearance” value in data set [4] is 5.67 mL/min/kg. In addition, the pEC50 is 7.23 in the data set on HSV-2 virus (MS strain) [2], 5.26 in the data set on HSV-2 virus (MS strain) [3] (setting [5]) and 6.26 with HSV-2 virus (MS strain) [3] (read-out: EC50-HSV2-FBS). Further, the pIC50 (usually the negative decadic logarithm of the IC50, by convention in mol/L) is 5.38 at hCAI (setting [6]) and 5.61 on hCAII (setting [7]).
`NS(=O)(=O)c1cc2c(cc1F)C[C@@H](C(F)F)N2C(=O)[C@@H]1Cc2ccc(-c3ccccn3)cc2C1` [Example 128, (S)-2-(difluoromethyl)-5-fluoro-1-((R)-5-(pyridin-2-yl)-2,3-dihydro-1H-indene-2-carbonyl)indoline-6-sulfonamide]: the “Predicted human hepatic clearance” value in data set [4] is 3.5 mL/min/kg. For the same molecule, the negative logarithm of the EC50 (pEC50) was 8.85 in the data set on HSV-2 virus (MS strain) [2], 7.20 in the data set with HSV-2 virus (MS strain) [3] (setting [5]) and 8.08 in the data set with HSV-2 virus (MS strain) [3] (read-out: EC50-HSV2-FBS). Besides, the pIC50 is no more than 4.30 at hCAI (setting [6]) and 5.13 on hCAII (setting [7]).
